The values that follow are results of earlier work, collected in patent publication US20100203146A1, “INTERMITTENT DOSING STRATEGY FOR TREATING RHEUMATOID ARTHRITIS” (Callisto Pharmaceuticals, Inc., priority 2009, published 2010).

One data set has as its system arthritis patients. As to conditions: after a single dosage of 90 mg.
Another data set has as its system RA patients. As to conditions: at the administered doses.
Another data set has as its system patients with RA. As to conditions: often observed.
Where [1] appears, read: after 14 or 28 days of daily oral dosing.

With `CCCC1(CCC)CCC2(CCN(CCCN(CC)CC)C2)CC1` [Atiprimod, 2-(3-Diethylaminopropyl)-8,8-dipropyl-2-azaspiro[4,5]decane], the patient-reported relief result with arthritis patients is listed as “feeling better”. Also, the dose-limiting toxicity entry in the data set on RA patients was “no observed dose-limiting toxicity”. Moreover, the tolerability result in the data set with RA patients (on drug for as long as one year) is “well-tolerated”. Also, under setting [1], the “area under the concentration-time curve (AUC)” value is recorded as “lower than expected” and the “maximum concentration (Cmax)” value is “lower than expected”. In addition, for the setting “in man”, the half-life was about 60 days.
On to `CN(Cc1cnc2nc(N)nc(N)c2n1)c1ccc(C(=O)N[C@@H](CCC(=O)O)C(=O)O)cc1` [Methotrexate], for which, in the data set on patients with RA, the “response (improvement)” value is on record as “less than 50%”.
